The text below walks through data of ChEMBL document CHEMBL1140218, “Novel bis- and tris-1,2,4-trioxanes: synthesis and antimalarial activity against multidrug-resistant Plasmodium yoelii in Swiss mice” (J Med Chem, 2008).

The subject of data set [1] is Plasmodium yoelii nigeriensis. Description: Antimalarial activity as cures against multidrug-resistant Plasmodium yoelii nigeriensis in Swiss mice (Mus musculus) at 96 mg/kg peroral dose for 4 days. In kind it is functional, organism-based. More on the design: dose 96 mg/kg.
Data set [2] concerns Plasmodium yoelii nigeriensis. Kind of data set: Antimalarial activity as reduced parasitaemia against multidrug-resistant Plasmodium yoelii nigeriensis in Swiss mice (Mus musculus) at 96 mg/kg peroral dose for 4 days. Also on record: scale not given: the % may be the effect or the level left. Type of data set: functional. Conditions: route oral.
For data set [3], the system named is Plasmodium yoelii nigeriensis. Description: Antimalarial activity as survival time against multidrug-resistant Plasmodium yoelii nigeriensis in Swiss mice (Mus musculus) at 96 mg/kg peroral dose for 4 days. Type of data set: functional. The settings on record: route oral.
In data set [4] the test system is Plasmodium yoelii nigeriensis. Kind of data set: Antimalarial activity as reduced parasitaemia against multidrug-resistant Plasmodium yoelii nigeriensis in Swiss mice (Mus musculus) at 48 mg/kg peroral dose for 4 days. Type of data set: functional. Also on record: scale not given: the % may be the effect or the level left. Conditions: route oral.
Data set [5] concerns Plasmodium yoelii nigeriensis. Kind of data set: Antimalarial activity as cures against multidrug-resistant Plasmodium yoelii nigeriensis infected Swiss mice (Mus musculus) at 48 mg/kg peroral dose over 4 days. Type of data set: functional, organism-based. Also on record: dose 48 mg/kg.
The subject of data set [6] is Plasmodium yoelii nigeriensis. Kind of data set: Antimalarial activity as survival time against multidrug-resistant Plasmodium yoelii nigeriensis in Swiss mice (Mus musculus) at 48 mg/kg peroral dose for 4 days. Conditions: route oral. Type of data set: functional.
Data set [7] relates to Plasmodium yoelii nigeriensis. Kind of data set: Antimalarial activity as reduced parasitaemia against multidrug-resistant Plasmodium yoelii nigeriensis in Swiss mice (Mus musculus) at 24 mg/kg peroral dose for 4 days. Type of data set: functional. Also on record: scale not given: the % may be the effect or the level left. Conditions: route oral.
Data set [8] is described as follows: Solubility in groundnut oil. In kind it is physicochemical.
Data set [9] deals with Plasmodium yoelii nigeriensis. Kind of data set: Antimalarial activity as survival time against multidrug-resistant Plasmodium yoelii nigeriensis in Swiss mice (Mus musculus) at 24 mg/kg peroral dose for 4 days. Type of data set: functional. Conditions: route oral.

Active and inactive are the calls of the source. The calls are words filed in the database; no cut-off is given here.

Regarding `C=C(c1ccc(Oc2ccc3ccc(Oc4ccc(C(=C)C5COC6(OO5)C5CC7CC(C5)CC6C7)cc4)cc3c2)cc1)C1COC2(OO1)C1CC3CC(C1)CC2C3` (centres undefined), the outcome in data set [1] was inactive. Also, the Activity in data set [2] was found to be 36.07%. Moreover, in [3], the Survival was determined as 7.4 days.

On to `C=C(c1ccc(OCC(O)COc2ccc(C(=C)C3COC4(CCCCC4)OO3)cc2)cc1)C1COC2(CCCCC2)OO1` (centres undefined), for which the outcome in [1] was Active. The Activity in data set [4] was 75.86%; in data set [2], 100%. Also, in data set [5], the outcome was inactive. The Survival in data set [6] was 8 days; in data set [3], over 28 days.

For the compound `C=C(c1ccc(Oc2ccc(Oc3ccc(C(=C)C4COC5(CCCCC5)OO4)cc3)cc2)cc1)C1COC2(CCCCC2)OO1` (centres undefined), the result in [1] was inactive. For the same compound, the Activity in data set [2] came to 47.33%. The Survival in [3] was found to be 8.6 days.

For `C=C(c1ccc(Oc2cccc(C(=C)C3COC4(OO3)C3CC5CC(C3)CC4C5)c2)cc1)C1COC2(OO1)C1CC3CC(C1)CC2C3` (centres undefined), in [1], the outcome was inactive. This compound yielded an Activity in [2] of 7.16%. Also, the Survival in data set [3] came out at 7.6 days.

Consider `C=C(c1ccc(OCCCOc2ccc(C(=C)C3COC4(CCCC4)OO3)cc2)cc1)C1COC2(CCCC2)OO1` (centres undefined), for which the result in data set [1] was Active. Also, the Activity in data set [4] and in data set [2] was 100% each time. Also, the outcome in data set [5] was inactive. For the same compound, the results for the Survival in data set [6] and in data set [3] were 12.8 days and over 28 days, respectively.

For the compound `C=C(c1ccc(OCCOc2ccc(C(=C)C3COC4(CCCCC4)OO3)cc2)cc1)C1COC2(CCCCC2)OO1` (centres undefined), the result in data set [1] was inactive. In addition, the Activity in data set [2] came to 86.29%. Also, in data set [3], the Survival was 10.6 days.

As to `C=C(c1ccc(Oc2ccc(Oc3ccc(C(=C)C4COC5(CCCC5)OO4)cc3)cc2)cc1)C1COC2(CCCC2)OO1` (centres undefined), the result in [1] was inactive. The compound further yielded an Activity in [2] of 50.83%. In data set [3], the Survival came to 7.6 days.

In the case of `C=C(c1ccc(Oc2cc(Oc3ccc(C(=C)C4COC5(CCCC5)OO4)cc3)cc(Oc3ccc(C(=C)C4COC5(CCCC5)OO4)cc3)c2)cc1)C1COC2(CCCC2)OO1` (centres undefined), the outcome in data set [1] was inactive. For the same compound, the Activity in data set [2] is given as 3.22%. The same compound had a Survival in [3] of 7.2 days.

Consider `C=C(c1ccc(Oc2cccc3c(Oc4ccc(C(=C)C5COC6(CCCC6)OO5)cc4)cccc23)cc1)C1COC2(CCCC2)OO1` (centres undefined), for which the result in [1] was inactive. The same compound registered an Activity in [2] of 40.05%. For the same compound, in data set [3], the Survival stood at 8.4 days.

For `C=C(c1ccc(Oc2cc(Oc3ccc(C(=C)C4COC5(OO4)C4CC6CC(C4)CC5C6)cc3)cc(Oc3ccc(C(=C)C4COC5(OO4)C4CC6CC(C4)CC5C6)cc3)c2)cc1)C1COC2(OO1)C1CC3CC(C1)CC2C3` (centres undefined), the outcome in data set [1] was inactive. Also, in data set [2], the Activity worked out at 5.47%. This compound had a Survival in [3] of 7.4 days.

For `C=C(c1ccc(Oc2cccc(C(=C)C3COC4(CCCCC4)OO3)c2)cc1)C1COC2(CCCCC2)OO1` (centres undefined), in [1], the result was inactive. The compound further showed an Activity in [2] of 76.79%. The same compound had a Survival in data set [3] of 10 days.

`C=C(c1ccc(Oc2cc(Oc3ccc(C(=C)C4COC5(CCCCC5)OO4)cc3)cc(Oc3ccc(C(=C)C4COC5(CCCCC5)OO4)cc3)c2)cc1)C1COC2(CCCCC2)OO1` (centres undefined): the outcome in [1] was inactive. In data set [2], this compound had an Activity of 26.37%. Besides, in [3], the Survival stood at 8.4 days.

`CCO[C@@H]1C[C@@H]2CC[C@@H](C)[C@@H]3CC[C@]4(C)OO[C@@]23[C@H](O1)O4`: the Activity in [4] and in data set [7] was 100% throughout. Besides, the outcome in [5] was Active. For the same compound, the Survival in [3] is over 28 days.

For the compound `C=C(c1ccc(OCC(O)COc2ccc(C(=C)C3COC4(CCCC4)OO3)cc2)cc1)C1COC2(CCCC2)OO1` (centres undefined), the outcome in data set [1] was Active. Besides, the figures for the Activity in data set [4] and in data set [2] were 74.32% and 100%, respectively. Further, the result in data set [5] was inactive. The Survival in data set [6] is 9.6 days; in data set [3] it was over 28 days.

In the case of `C=C(c1ccc(Oc2ccc3ccc(Oc4ccc(C(=C)C5COC6(CCCC6)OO5)cc4)cc3c2)cc1)C1COC2(CCCC2)OO1` (centres undefined), in data set [1], the result was inactive. In [2], this compound registered an Activity of 42.29%. This compound also gave a Survival in [3] of 7.8 days.

For `C=C(c1ccc(Oc2ccc3ccc(Oc4ccc(C(=C)C5COC6(CCCCC6)OO5)cc4)cc3c2)cc1)C1COC2(CCCCC2)OO1` (centres undefined), the solubility entry in data set [8] was “Insoluble”.

In the case of `C=C(c1ccc(OCCOc2ccc(C(=C)C3COC4(CCCC4)OO3)cc2)cc1)C1COC2(CCCC2)OO1` (centres undefined), the outcome in data set [1] was Active. The Activity in data set [4] amounted to 87.76%; in data set [2] it was 100%. For the same compound, the result in [5] was inactive. The Survival was 12.2 days in [6] and over 28 days in [3].

`C=C(c1ccc(Oc2ccc(C(=C)C3COC4(CCCC4)OO3)cc2)cc1)C1COC2(CCCC2)OO1` (centres undefined): the outcome in data set [1] and in [5] was Active. Also, the Activity in data set [4], in data set [2] and in data set [7] was 100% in each case. Further, the Survival in [9] was over 21.2 days; in data set [6] it was over 28 days; in data set [3], over 28 days.

On to `C=C(c1ccc(Oc2ccc(Oc3ccc(C(=C)C4COC5(OO4)C4CC6CC(C4)CC5C6)cc3)cc2)cc1)C1COC2(OO1)C1CC3CC(C1)CC2C3` (centres undefined), for which the outcome in data set [1] was inactive. For the same compound, the Activity in data set [2] is recorded as 38.46%. In [3], the Survival turned out to be 9 days.

`C=C(c1ccc(Oc2ccc(C(=C)C3COC4(CCCCC4)OO3)cc2)cc1)C1COC2(CCCCC2)OO1` (centres undefined): the result in data set [1] was Active. For the same compound, the Activity in data set [4] and in data set [2] was 100% each time. In [5], the result was inactive. The Survival in data set [6] is 11.8 days; in [3] it was over 28 days.

With `C=C(c1ccc(Oc2ccc(C(=C)C3COC4(OO3)C3CC5CC(C3)CC4C5)cc2)cc1)C1COC2(OO1)C1CC3CC(C1)CC2C3` (centres undefined), the outcome in [1] was inactive. The compound also yielded an Activity in data set [2] of 36.74%. Besides, in data set [3], the Survival came to 7.2 days.

Take `C=C(c1ccc(OCCOc2ccc(C(=C)C3COC4(OO3)C3CC5CC(C3)CC4C5)cc2)cc1)C1COC2(OO1)C1CC3CC(C1)CC2C3` (centres undefined): the result in data set [1] was inactive. In data set [2], this compound showed an Activity of 66.39%. The compound further yielded a Survival in data set [3] of 7.6 days.

For `C=C(c1ccc(Oc2cccc(C(=C)C3COC4(CCCC4)OO3)c2)cc1)C1COC2(CCCC2)OO1` (centres undefined), the outcome in [1] was Active. Besides, the Activity in data set [4] and in data set [2] was 100% throughout. Also, in data set [5], the result was inactive. Further, the Survival is 12.2 days in data set [6] and over 28 days in [3].

Take `C=C(c1ccc(Oc2cccc3c(Oc4ccc(C(=C)C5COC6(CCCCC6)OO5)cc4)cccc23)cc1)C1COC2(CCCCC2)OO1` (centres undefined): in data set [1], the outcome was inactive. In data set [2], this compound had an Activity of 16.36%. This compound registered a Survival in [3] of 8.2 days.

With `C=C(c1ccc(OCCCOc2ccc(C(=C)C3COC4(OO3)C3CC5CC(C3)CC4C5)cc2)cc1)C1COC2(OO1)C1CC3CC(C1)CC2C3` (centres undefined), the result in [1] was inactive. This compound displayed an Activity in data set [2] of 32.54%. Also, the Survival in data set [3] worked out at 7.4 days.

As for `C=C(c1ccc(OCC(O)COc2ccc(C(=C)C3COC4(OO3)C3CC5CC(C3)CC4C5)cc2)cc1)C1COC2(OO1)C1CC3CC(C1)CC2C3` (centres undefined), in data set [1], the outcome was inactive. In addition, the Activity in data set [2] is 26.76%. This compound also gave a Survival in data set [3] of 8.6 days.

With `C=C(c1ccc(Oc2cccc3c(Oc4ccc(C(=C)C5COC6(OO5)C5CC7CC(C5)CC6C7)cc4)cccc23)cc1)C1COC2(OO1)C1CC3CC(C1)CC2C3` (centres undefined), the result in data set [1] was inactive. In [2], the Activity is 12.27%. In addition, in [3], the Survival is 7.4 days.

Turning to `C=C(c1ccc(OCCCOc2ccc(C(=C)C3COC4(CCCCC4)OO3)cc2)cc1)C1COC2(CCCCC2)OO1` (centres undefined), the result in [1] was Active. The Activity in data set [4] is 87.47%; in [2], 100%. In addition, the result in data set [5] was inactive. The Survival is 10.8 days in data set [6] and over 28 days in data set [3].
